According to patent US20160169918A1, “Methods of Diagnosis and Treatment for Pulmonary Arterial Hypertension” (THE REGENTS OF THE UNIVERSITY OF CALIFORNIA, priority 2013, published 2016):
Values belong to the molecule of their own block, whether it stands above or below them.

Key:
[1] = target: T1, oxytocin receptor (Homo sapiens, UniProt P30559); experiment: forskolin-stimulated cAMP levels in Ctrl-PASMCs with oxytocin; format: cell-based; settings: 0.1 nM-10 μM, 10 min, FIG. 4D
T1 construct: the oxytocin receptor is expressed on the membrane of Ctrl-PASMCs; endogenous in cells; host or cells: Ctrl-PASMCs (primary human pulmonary artery smooth muscle cells)
T1 sequence (P30559 1-389): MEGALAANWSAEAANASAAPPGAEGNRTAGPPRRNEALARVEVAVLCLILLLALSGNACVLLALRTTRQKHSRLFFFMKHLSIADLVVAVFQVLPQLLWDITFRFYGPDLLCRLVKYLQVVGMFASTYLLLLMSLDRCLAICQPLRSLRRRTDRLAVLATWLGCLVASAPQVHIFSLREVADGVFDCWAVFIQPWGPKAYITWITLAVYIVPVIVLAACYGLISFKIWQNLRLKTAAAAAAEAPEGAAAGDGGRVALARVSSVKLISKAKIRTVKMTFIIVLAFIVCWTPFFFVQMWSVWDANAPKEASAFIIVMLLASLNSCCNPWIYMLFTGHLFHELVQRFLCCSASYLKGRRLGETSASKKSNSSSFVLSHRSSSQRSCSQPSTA
Protocol: (§1) Control-PASMCs, PAH-PASMCs or HEK 293 cells were seeded at 30,000 cells/well in a 24-well plate. […] 10 uM FSK (alone) was used as a positive control. After the incubations, the media was aspirated and 150 μL of 7.5% trichloroacetic acid (TCA) was added to each well.
(§2) Assay tubes were filled with 1 mL of 10 mM sodium acetate buffer (pH 4.75) and a standard curve was constructed by serial dilution of stock 5 μM cAMP (Millipore, Billerica, Mass.). An appropriate amount of sample was added to the assay tubes and the samples were acetylated by addition of 20 μL triethylamine (Sigma) and 10 μl acetic anhydride (Sigma). 100 μL of the sodium acetate buffer was added to each well of a 96-well filter plate to prepare the plate and then was removed by vacuum. 50 μL of diluted, acetylated sample was added to each well along with 25 μL diluted antibody [1:1000, 6 μL primary cAMP antibody (Millipore) in 6 mL γ-globulin buffer (100 mg human γ-globulin/100 mL 50 mM NaAc pH 4.75)] and 25 μL diluted ^125I radioactivity [16 acetylated adenosine 3′,5′-cyclic phosphoric acid, 2′-O-succinyl [^125I]-iodotyrosine methyl ester (PerkinElmer) in 3 mL γ-globulin buffer so that 0.001 mCi of ^125I could be added to each sample. The 96-well filter plate containing the sample was incubated overnight at 4° C. […]

[2] = test system: Ctrl-PASMCs; experiment: [3H]thymidine incorporation (DNA synthesis, proliferation) of PASMCs with GPCR agonists; format: cell-based, human
Protocol: GPCR agonists/antagonists/GPR75 antibody in the absence or presence of 200 μM IBMX and [^3H] thymidine (1 μCi/ml) were added to the cells for 24-48 hr. Following incubation, cells were washed with a large volume of cold phosphate buffer saline (PBS) and then twice with a large volume of cold 7.5% TCA. The precipitated material was dissolved with 0.5 M NaOH and combined with 3 mL of scintillation fluid (Ecoscint O, National Diagnostics) and radioactivity was determined using a liquid scintillation counter (Beckman Coulter LS 1801).

[3] = oxytocin 0.2 units/kg; cited from earlier work
[4] = target: T2, gastric inhibitory polypeptide receptor (GIPR) (Homo sapiens, UniProt P48546); experiment: cAMP accumulation in response to receptor agonist (cAMP radioimmunoassay) in Ctrl-PASMCs; settings: agonist 1 μM, 10 min treatment
T2 sequence (P48546 22-466): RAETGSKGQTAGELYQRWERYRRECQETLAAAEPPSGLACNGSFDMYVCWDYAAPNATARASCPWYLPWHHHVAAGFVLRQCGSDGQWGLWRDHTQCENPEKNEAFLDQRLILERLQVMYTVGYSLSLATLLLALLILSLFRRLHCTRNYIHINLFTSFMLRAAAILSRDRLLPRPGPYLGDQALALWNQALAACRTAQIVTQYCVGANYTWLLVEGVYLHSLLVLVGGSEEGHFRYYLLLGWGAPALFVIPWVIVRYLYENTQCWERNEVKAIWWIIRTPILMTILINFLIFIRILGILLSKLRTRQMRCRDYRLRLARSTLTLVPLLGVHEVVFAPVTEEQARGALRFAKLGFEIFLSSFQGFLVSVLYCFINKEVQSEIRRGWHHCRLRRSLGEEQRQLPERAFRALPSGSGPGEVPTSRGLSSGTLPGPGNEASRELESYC
Protocol: as §1, §2

[5] = test system: Adult Sprague-Dawley rats; experiment: monocrotaline-treated rat model, right ventricular hypertrophy (Fulton Index); settings: MCT 60 mg/kg once intraperitoneally, 2 weeks, control rats 0.20
Protocol: Adult Sprague-Dawley rats (250-300 g, male) were injected once intraperitoneally with MCT (60 mg/kg) and sacrificed 2 weeks later. Right ventricular hypertrophy was assessed to determine the development of PAH. It was evaluated as the ratio of the weight of the right ventricle to that of the left ventricle plus the septum (Fulton Index). […] This model is commonly used and approved as a valid model of PAH.^42,43 All animals were cared for in compliance with the guiding principles and approved by the UCSD Institutional Animal Care and Use Committee.

[6] = test system: human PASMCs; settings: cited from earlier work
[7] = test system: GPR75; settings: cited from earlier work
[8] = target: prostacyclin receptor (IPR) (Homo sapiens, UniProt P43119); experiment: cAMP accumulation in response to receptor agonist (cAMP radioimmunoassay) in Ctrl-PASMCs; format: cell-based; settings: agonist 10 μM, 10 min treatment
Protocol: as §1, §2

[9] = test system: PAH-patients; settings: chronic inhalation; n=8 PAH-patients; cited from earlier work
[10] = target: vasoactive intestinal peptide receptor 1 (human) (UniProt P32241); experiment: cell-based or functional assay
[11] = test system: smooth muscle cell; settings: after serum stimulation; cited from earlier work
[12] = target: T3, adenosine 2B receptor (A2BR) (Homo sapiens, UniProt P29275); experiment: cAMP accumulation in response to receptor agonist (cAMP radioimmunoassay) in Ctrl-PASMCs; format: cell-based; settings: agonist 1 μM, 10 min treatment
T3 sequence (P29275 1-332): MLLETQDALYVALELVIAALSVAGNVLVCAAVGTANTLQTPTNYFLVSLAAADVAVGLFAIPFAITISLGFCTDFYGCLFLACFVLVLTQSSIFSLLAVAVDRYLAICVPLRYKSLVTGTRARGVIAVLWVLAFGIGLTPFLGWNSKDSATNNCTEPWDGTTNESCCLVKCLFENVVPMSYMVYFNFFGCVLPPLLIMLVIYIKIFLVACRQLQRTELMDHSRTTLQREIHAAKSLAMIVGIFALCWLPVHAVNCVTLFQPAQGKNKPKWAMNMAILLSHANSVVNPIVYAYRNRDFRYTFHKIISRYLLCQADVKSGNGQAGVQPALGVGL
Protocol: as §1, §2

[13] = target: gastric inhibitory polypeptide receptor (human) (UniProt P48546); experiment: cell-based or functional assay
[14] = target: prostaglandin E2 receptor (EP2R) (Homo sapiens, UniProt P43116); experiment: cAMP accumulation in response to receptor agonist (cAMP radioimmunoassay) in Ctrl-PASMCs; settings: agonist 1 μM, 10 min treatment
Protocol: as §1, §2

[15] = HEK293 cells overexpressing GPR75

vasoactive intestinal peptide receptor 1 (human), sequence (P32241 31-457): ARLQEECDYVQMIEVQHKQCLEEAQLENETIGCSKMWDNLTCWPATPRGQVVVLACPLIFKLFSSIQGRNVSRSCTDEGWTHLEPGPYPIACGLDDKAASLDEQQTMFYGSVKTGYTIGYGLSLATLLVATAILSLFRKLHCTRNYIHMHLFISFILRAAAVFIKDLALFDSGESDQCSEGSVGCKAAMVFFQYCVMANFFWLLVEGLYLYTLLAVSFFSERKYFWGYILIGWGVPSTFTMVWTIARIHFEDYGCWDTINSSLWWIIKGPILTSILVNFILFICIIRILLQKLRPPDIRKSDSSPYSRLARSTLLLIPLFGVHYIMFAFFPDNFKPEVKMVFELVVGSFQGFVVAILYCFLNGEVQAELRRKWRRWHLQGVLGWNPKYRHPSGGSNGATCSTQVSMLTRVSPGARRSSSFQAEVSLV
prostacyclin receptor (IPR), sequence (P43119 whole entry): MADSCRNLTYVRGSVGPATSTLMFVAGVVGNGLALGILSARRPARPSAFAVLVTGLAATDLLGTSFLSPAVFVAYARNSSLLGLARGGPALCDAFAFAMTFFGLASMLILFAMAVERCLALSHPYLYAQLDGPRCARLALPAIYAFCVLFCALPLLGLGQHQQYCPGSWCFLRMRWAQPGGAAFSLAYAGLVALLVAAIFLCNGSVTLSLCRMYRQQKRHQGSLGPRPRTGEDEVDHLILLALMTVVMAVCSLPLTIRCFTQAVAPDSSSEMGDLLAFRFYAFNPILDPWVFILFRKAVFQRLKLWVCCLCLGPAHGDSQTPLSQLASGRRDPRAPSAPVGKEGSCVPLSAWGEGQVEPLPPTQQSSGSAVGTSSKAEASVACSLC
prostaglandin E2 receptor (EP2R), sequence (P43116 whole entry): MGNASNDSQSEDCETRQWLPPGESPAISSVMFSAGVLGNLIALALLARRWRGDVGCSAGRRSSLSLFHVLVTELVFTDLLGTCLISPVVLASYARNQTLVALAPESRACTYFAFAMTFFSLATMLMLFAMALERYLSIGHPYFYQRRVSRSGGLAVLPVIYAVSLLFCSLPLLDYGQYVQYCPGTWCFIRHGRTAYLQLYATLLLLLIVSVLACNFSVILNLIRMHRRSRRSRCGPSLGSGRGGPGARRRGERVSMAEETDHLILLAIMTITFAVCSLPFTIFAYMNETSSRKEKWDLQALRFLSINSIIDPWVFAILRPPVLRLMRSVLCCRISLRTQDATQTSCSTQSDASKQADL

- cAMP accumulation (forskolin-stimulated) [1]: decreased cAMP accumulation
Molecule: CC[C@H](C)[C@@H]1NC(=O)[C@H](Cc2ccc(O)cc2)NC(=O)[C@@H](N)CSSC[C@@H](C(=O)N2CCC[C@H]2C(=O)N[C@@H](CC(C)C)C(=O)NCC(N)=O)NC(=O)[C@H](CC(N)=O)NC(=O)[C@H](CCC(N)=O)NC1=O [oxytocin]
- PASMC proliferation ([2]; 0.1 nM-10 μM, cells in serum free media over 24 hr, FIG. 4D): promoted PASMC proliferation
- mean PAP [3]: increases
- pulmonary vascular resistance (PVR) [3]: increases

- cAMP accumulation [4]: 0.2 fmol cAMP/cell/10 min
Molecule: GIP: receptor agonist used for the gastric inhibitory polypeptide receptor (GIPR)

Molecule: C[C@H]1C(=O)O[C@@H]2CCN3CC=C(COC(=O)[C@](C)(O)[C@]1(C)O)[C@H]23 [MCT, Monocrotaline]
- Fulton Index (weight of right ventricle / left ventricle plus septum) [5]: 0.34

Molecule: Neuropeptide Y
- proliferation of human PASMCs [6]: stimulates proliferation

Molecule: COc1ccc2c(c1)CC[C@@H]1[C@@H]2CC[C@]2(C)[C@@H](NCCCCCCN3C(=O)C=CC3=O)CC[C@@H]12 [U73122]
- RANTES-mediated increase in Ca2+ mobilization ([7]; GPR75-HEK293 cells, PLC inhibitor): block

- cAMP accumulation [8]: 0.4 fmol cAMP/cell/10 min
Molecule: CCCCC[C@H](O)/C=C/[C@@H]1[C@H]2C/C(=C/CCCC(=O)O)O[C@H]2C[C@H]1O [epoprostenol]

Molecule: Vasoactive Intestinal Peptide [VIP]
- decrease of PASMC proliferation ([2]; 0.1 nM-10 μM VIP, FIG. 4C): roughly 50%
- exercise capacity [9]: improve
- hemodynamics [9]: improve

- cAMP accumulation (fmol cAMP/cell/10 min treatment with agonist) in Ctrl-PASMCs at 1 µM VIP (fmol cAMP/cell/10 min) [10]: 0.2
- decrease in proliferation of PASMCs (0.1 nM-10 µM VIP) [10]: 50%
Molecule: vasoactive intestinal peptide (from UniProt P01282 125-152)

Molecule: Nc1ncnc2c1nc(Br)n2[C@@H]1O[C@@H]2COP(=O)(O)O[C@H]2[C@H]1O [8Br-cAMP]
- percentage of cells in the S phase of the cell cycle [11]: reduced

Molecule: Nc1nc(Nc2ccccc2)nc2c1ncn2[C@@H]1O[C@H](CO)[C@@H](O)[C@H]1O [CV1808]
- cAMP accumulation [12]: 0.6 fmol cAMP/cell/10 min

- cAMP accumulation (fmol cAMP/cell/10 min treatment with agonist) in Ctrl-PASMCs at 1 µM GIP (fmol cAMP/cell/10 min) [13]: 0.2
Molecule: GIP (from UniProt P09681 52-93) (peptide)

- cAMP accumulation [14]: 0.4 fmol cAMP/cell/10 min
Molecule: CCCC1([C@H](O)C/C=C/[C@H]2[C@H](O)CC(=O)[C@@H]2CCCCCCC(=O)OC)CCC1 [butaprost]

B1: RANTES: Regulated upon Activation, Normal T-cell Expressed, and Secreted chemokine; proposed ligand for GPR75 (protein, UniProt P13501 24-91, looked up)
C-C motif chemokine 5: SPYSSDTTPCCFAYIARPLPRAHIKEYFYTSGKCSNPAVVFVTRKNRQVCANPEKKWVREYINSLEMS
- Ca2+ mobilization [7, 15]: stimulation
- inositol triphosphate (IP3) [7, 15]: increase
